Like-named read-outs stand apart in the source and are kept apart here.
Legend:
[1] = tested on: EEA1-positive vesicles; assay type: cell-based, human
[2] = tested on: HeLa cells; assay type: cell-based, human; conditions: for Dextran Uptake: 50 μM
[3] = tested on: Cathepsin; assay: Cathepsin cleavage of GP
[4] = target: T1, acetylcholine receptor M1 (Homo sapiens, UniProt P11229); conditions: PubChem data; cited from earlier work
T1 sequence (P11229 1-460): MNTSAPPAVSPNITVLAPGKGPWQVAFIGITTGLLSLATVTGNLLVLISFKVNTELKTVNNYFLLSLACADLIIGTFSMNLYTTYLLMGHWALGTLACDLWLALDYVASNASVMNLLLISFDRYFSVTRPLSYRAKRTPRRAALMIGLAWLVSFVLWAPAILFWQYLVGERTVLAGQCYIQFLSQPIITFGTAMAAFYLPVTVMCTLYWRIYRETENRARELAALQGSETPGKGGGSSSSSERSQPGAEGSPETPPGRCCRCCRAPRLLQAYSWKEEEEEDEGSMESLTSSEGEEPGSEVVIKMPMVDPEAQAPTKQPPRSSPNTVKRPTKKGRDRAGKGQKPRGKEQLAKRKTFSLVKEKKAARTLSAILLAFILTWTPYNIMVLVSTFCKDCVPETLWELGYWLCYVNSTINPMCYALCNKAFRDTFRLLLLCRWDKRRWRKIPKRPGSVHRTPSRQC

[5] = tested on: EBOV; assay: microbe, parasite or virus in culture; assay type: cell-based, Zaire Ebolavirus (Mayinga strain)
[6] = tested on: HeLa cells; assay type: cell-based, human; conditions: for Transferrin uptake: 50 μM
[7] = tested on: EBOV; assay: organism not typed; assay type: cell-based, Zaire Ebolavirus (Mayinga strain)
[8] = tested on: MARV; assay: microbe, parasite or virus in culture; assay type: cell-based, Marburgvirus (Musoke strain)
[9] = tested on: LAMP1-positive vesicles; assay type: cell-based, human
[10] = tested on: Baby hamster kidney fibroblasts (BHK) cells; assay: Acridine orange assay for acidification blockers; assay type: cell-based
[11] = target: T2, NPC1 C-loop (Homo sapiens, UniProt O15118); assay: NPC1 C-loop binding
T2 construct: C-loop
T2 sequence (O15118 372-620 limits assumed): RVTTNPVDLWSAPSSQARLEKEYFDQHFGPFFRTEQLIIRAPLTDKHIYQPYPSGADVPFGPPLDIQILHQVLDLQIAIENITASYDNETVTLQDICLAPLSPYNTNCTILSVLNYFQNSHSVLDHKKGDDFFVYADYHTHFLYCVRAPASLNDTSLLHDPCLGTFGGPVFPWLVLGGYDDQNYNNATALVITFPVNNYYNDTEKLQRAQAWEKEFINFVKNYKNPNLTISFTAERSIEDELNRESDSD

[12] = target: TDP1 (Homo sapiens, UniProt Q9NUW8); conditions: PubChem data; cited from earlier work
TDP1, sequence (Q9NUW8 whole entry, species assumed): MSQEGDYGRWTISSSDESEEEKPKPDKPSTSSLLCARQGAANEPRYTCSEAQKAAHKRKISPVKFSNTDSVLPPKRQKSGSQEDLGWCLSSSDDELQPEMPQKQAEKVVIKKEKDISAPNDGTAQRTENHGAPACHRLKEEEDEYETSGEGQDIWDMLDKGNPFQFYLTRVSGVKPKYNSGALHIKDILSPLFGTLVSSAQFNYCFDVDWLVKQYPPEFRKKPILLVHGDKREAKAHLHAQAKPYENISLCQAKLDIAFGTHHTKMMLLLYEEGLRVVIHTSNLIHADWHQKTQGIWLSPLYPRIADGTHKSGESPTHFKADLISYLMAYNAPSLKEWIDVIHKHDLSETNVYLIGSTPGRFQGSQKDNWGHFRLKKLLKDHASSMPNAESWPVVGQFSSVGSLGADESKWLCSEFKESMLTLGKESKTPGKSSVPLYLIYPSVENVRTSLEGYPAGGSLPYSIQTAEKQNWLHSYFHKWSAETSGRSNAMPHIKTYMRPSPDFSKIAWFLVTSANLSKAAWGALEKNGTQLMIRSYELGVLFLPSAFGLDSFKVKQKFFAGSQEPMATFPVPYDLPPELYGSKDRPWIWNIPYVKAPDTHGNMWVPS

[13] = tested on: EBOV; assay type: cell-based, Zaire Ebolavirus (Mayinga strain)
[14] = tested on: HeLa cells; conditions: human
[15] = target: MDM2/A (Homo sapiens, UniProt Q00987); conditions: MLSMR screening network data; cited from earlier work
MDM2/A, sequence (Q00987 whole entry, species assumed): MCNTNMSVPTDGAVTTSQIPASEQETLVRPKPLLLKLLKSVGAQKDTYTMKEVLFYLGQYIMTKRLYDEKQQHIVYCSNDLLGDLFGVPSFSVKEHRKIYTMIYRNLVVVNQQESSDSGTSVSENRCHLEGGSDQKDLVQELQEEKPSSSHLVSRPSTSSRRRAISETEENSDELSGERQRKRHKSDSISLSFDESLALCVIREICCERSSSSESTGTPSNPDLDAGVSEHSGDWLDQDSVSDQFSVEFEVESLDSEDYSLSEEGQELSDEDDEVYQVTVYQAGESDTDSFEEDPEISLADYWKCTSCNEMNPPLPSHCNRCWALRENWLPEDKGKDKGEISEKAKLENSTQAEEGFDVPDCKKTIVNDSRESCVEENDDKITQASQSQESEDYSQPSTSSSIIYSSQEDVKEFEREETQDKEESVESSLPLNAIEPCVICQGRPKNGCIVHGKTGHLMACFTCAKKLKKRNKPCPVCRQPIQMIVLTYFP

[16] = tested on: IL-1-Beta; conditions: PubChem / MLSMR data; cited from earlier work
[17] = tested on: Synuclein; conditions: PubChem data; cited from earlier work
[18] = target: T3, MDM4/1 (Homo sapiens, UniProt O15151); conditions: MLSMR screening network data; cited from earlier work
T3 sequence (O15151 1-490): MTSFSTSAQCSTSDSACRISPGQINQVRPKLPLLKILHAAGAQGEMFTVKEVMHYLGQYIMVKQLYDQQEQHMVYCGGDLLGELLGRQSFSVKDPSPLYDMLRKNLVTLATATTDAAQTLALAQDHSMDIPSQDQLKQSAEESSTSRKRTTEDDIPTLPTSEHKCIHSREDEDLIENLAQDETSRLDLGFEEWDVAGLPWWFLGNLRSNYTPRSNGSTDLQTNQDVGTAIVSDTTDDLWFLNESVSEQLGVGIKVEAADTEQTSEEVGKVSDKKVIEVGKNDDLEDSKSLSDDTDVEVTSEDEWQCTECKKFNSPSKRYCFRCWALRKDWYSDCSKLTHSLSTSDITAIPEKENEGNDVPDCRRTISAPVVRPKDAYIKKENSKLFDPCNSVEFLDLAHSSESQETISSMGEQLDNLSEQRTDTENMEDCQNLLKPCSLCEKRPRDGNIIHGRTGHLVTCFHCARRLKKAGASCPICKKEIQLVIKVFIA

[19] = tested on: Shiga toxins A and B; conditions: cited from earlier work
[20] = tested on: Janus kinase 2; conditions: PubChem data; cited from earlier work

CC(C)N1CCN(C(=O)c2ccc(OC3CCN(CCc4ccccc4)CC3)cc2)CC1 [MLS001101371]
Effect on EEA1 [1]: 0
VLP colocalization with EEA1 [1]: colocalized with EEA1 positive vesicles normally
Dextran Uptake [2]: 0
Cathepsin clevage [3]: 0
antagonist of acetylcholine receptor M1 [4]: identified
IC50 ([5]; read-out: Activity in macrophages IC50): 24.6 µM
effect on transferrin uptake [6]: do not inhibit transferrin uptake
Transferrin uptake [6]: 0
Curve Class (EBOV) [7]: 1.3
EBOV (curve class) [7]: 1.3
IC50 ([7]; read-out: EBOV HeLa IC50): 12.9 µM
IC50 ([7]; read-out: IC-50 (EBOV)): 12.9 µM
Curve class (MARV) [8]: 1.3
MARV (Curve class) [8]: 1.3
IC50 ([8]; read-out: IC-50 (MARV)): 13 µM
IC50 ([8]; read-out: MARV HeLa IC50): 13 µM
Effect on LAMP1 [9]: −
reduction of number of VLPs present in LAMP1-positive vesicles [9]: 41%
Acidification Block [10]: +
NPC1 C-loop binding [11]: 0
antagonist of DNA repair gene TDP1 [12]: identified
Surface interaction [13]: 0
Uninfected cell number [13]: 0

O=[N+]([O-])c1cc(S(=O)(=O)NCCN2CCOCC2)ccc1Sc1nnnn1-c1ccccc1 [MLS000394177, N-(2-morpholin-4-ylethyl)-3-nitro-4-(1-phenyltetrazol-5-yl)sulfanylbenzenesulfonamide]
toxic concentration (not toxic up to / toxic at) [14]: > 100 µM
inhibition of MDM2/A [15]: identified as inhibitors
secretion of IL-1-Beta [16]: inhibit secretion of IL-1-Beta
Synuclein activity [17]: active
inhibition of MDM4/1 [18]: identified as inhibitors
reduction of uptake of fluorescently labeled dextran [2]: approximately 91%
Dextran Uptake [2]: −
Cathepsin clevage [3]: 0
Shiga toxins A and B [19]: active
IC50 ([5]; Zaire ebolavirus, Macrophage, read-out: Activity in macrophages IC50 (μM)): 8.6 µM
effect on transferrin uptake [6]: no effect on transferrin uptake
Transferrin uptake [6]: 0
Curve Class (EBOV) [7]: 1.6
EBOV (curve class) [7]: 1.6
potency for Ebolavirus inhibition, times better than EIPA [7]: 25 times
EC50 ([7]; HeLa, read-out: EC50 for Ebolavirus inhibition): 1.9 µM
IC50 ([7]; Zaire ebolavirus, HeLa, read-out: EBOV HeLa IC50 (μM)): 1.9 µM
IC50 ([7]; Zaire ebolavirus, HeLa, read-out: IC-50 (EBOV)): 1.89 µM
Curve class (MARV) [8]: 1.3
MARV (Curve class) [8]: 1.3
IC50 ([8]; Orthomarburgvirus, HeLa, read-out: IC-50 (MARV)): 12.9 µM
IC50 ([8]; Orthomarburgvirus, HeLa, read-out: MARV HeLa IC50 (μM)): 12.9 µM
inhibition of Janus kinase 2 (JNK2) [20]: active
Acidification Block [10]: +
effect on endosomal acidification [10]: affected endosomal acidification
NPC1 C-loop binding [11]: 0
Surface interaction [13]: +
Uninfected cell number [13]: 0
enhancement of virus interaction with cells [13]: 44%
reduction of number of viral particles inside the cell body [13]: 62%

Reference: patent US10111881B2 (priority 2016, dated 2018)
